The text below walks through data of article PMC4109680, “Identification and Preclinical Pharmacology of the γ-Secretase Modulator BMS-869780” (International Journal of Alzheimer's Disease, 2014).

Test [1] has as its system Aβ1-42 (H4-APPsw). Nature of the test: Aβ1-42 time-resolved fluorescence immunoassay in H4-APPsw cell cultures. In kind it is cell-based, human. The conditions noted are these: H4-APPsw cultures treated overnight. As to the method:
H4-APPsw cell cultures were maintained on Dulbecco's modified Eagle's medium (DMEM) supplemented with L-glutamine (2 mM), fetal bovine serum (10%), and G418 (100 μg/mL). […] Aβ1-42 and Aβ1-40 assays, and Notch inhibition assays, were carried out as described previously. Mouse embryonic fibroblasts deficient in PS1 and PS2 (MEF dKO) were passaged twice per week in DMEM/F-12 medium, consisting of a 1 : 1 mixture of DMEM and F-12 nutrient mixture supplemented with 10% fetal bovine serum, penicillin, and streptomycin. For expression of human presenilin-1 in MEF dKO cells, the full length human presenilin-1 cDNA open reading frame was cloned between the BamHI and XhoI sites of the vector pcDNA5/FRT (Invitrogen), placing presenilin-1 expression under the control of the CMV promoter. The M146V mutated allele was introduced into the presenilin-1 expression construct by polymerase chain reaction using the oligonucleotide primers 5′-[…]-3′ and 5′-[…]-3 (QuikChange kit, Invitrogen). MEF dKO cultures were cotransfected with DNA constructs expressing APP-CTF, encoding the C-terminal 99 amino acids of APP [61] and either the human presenilin-1 or presenilin-1 M146V allele. Transfected cultures were incubated overnight at 37°C in 5% CO2 atmosphere and then harvested, resuspended in DMEM/F-12 medium, dispensed into 96-well culture plates, and incubated for 6 hours at 37°C in 5% CO2 atmosphere. Culture medium was then replaced with Ultraculture serum free medium (Lonza, Rockland, ME) with or without compounds at a range of concentrations and incubated overnight.
IC50 determinations for Aβ1-42 and Aβ1-40 in H4-APPsw cultures in 384-well format were determined using homogeneous time-resolved fluorescence immunoassays as previously described. The principle of these assays is illustrated in Figures 1(c) and 1(d). In other experiments using H4-APPsw cultures, Aβ was quantified by ELISA; for Aβ1-42 the combination of monoclonal antibodies was 26D6 and 565-HRP; for Aβ1-40 it was TSD and 26D6-HRP, and for Aβ1-x it was 4G8 and 26D6-HRP. In some experiments a novel 4-plex Aβ electrochemiluminescence immunoassay was used (Mesoscale Discovery catalog number N45ZA-1). Briefly, the 4-plex was carried out in 96-well format, with 4 separate spots of capture antibodies in each well. […] For Aβ in transiently transfected PS1/PS2 dKO fibroblasts, Aβ1-42 was quantified using an ELISA kit (WACO), and Aβ1-40 was quantified by ELISA as described above for H4-APPsw cultures. […] For the rat and mouse experiments illustrated in Figures 7 and 8, brain samples were prepared by solid phase extraction, and endogenous rat brain Aβ1-42 and Aβ1-40 were quantified by ELISA as previously described for wild type mice. […]

Test [2] concerns mNotch1ΔE. Nature of the test: Notch signaling CBF1-luciferase reporter assay in HeLa cells transfected with mNotch1ΔE. In kind it is cell-based. The conditions noted are these: for IC50: HeLa, treated overnight; for mNotch1ΔE/Aβ1-42: ratio of IC50 values. As to the method:
Inhibition of Notch signaling in cultured cells using a mouse-derived truncated Notch1 transgene, mNotch-ΔE [67], has been described in detail previously. Western blots for mNotchΔ1865 and NICD using 9E10 anti-c-myc monoclonal were carried out as previously described.
The effect of BMS-869780 on Notch processing was evaluated using transcriptional reporter assays and western blotting of NICD levels. HeLa cell cultures were transfected with mNotch1ΔE and CBF1-luciferase reporter constructs and treated with BMS-869780. In most replicates of this experiment, inhibition of luciferase reporter occurred with IC50 > 10 μM. […] To further evaluate the effect of BMS-869780 on Notch processing, western blots of cell cultures were carried out using mNotch1Δ1865, a truncated version of mNotch1ΔE that facilitates separation of NICD product from mNotch1 substrate on western blots. HeLa cell cultures were transfected with mNotch1Δ1865 and treated overnight with compounds before western blotting. […] Furthermore, the GSIs caused an increased level of mNotch1Δ1865 substrate, most likely due to inhibition of its turnover by γ-secretase, as previously noted by Blat et al..
(b) HeLa cell cultures were transfected with mNotchΔ1865, treated with compounds overnight, and cell extracts were evaluated by western blot using anti-c-myc-HRP conjugate. Lanes 1 and 9: DMSO (0.1%) vehicle. Lane 2: BMS-299897 at 1 μM. Lane 3: BMS-433796 at 0.3 μM. Lanes 4–8: BMS-869780 at 0.1, 0.3, 1, 3, and 10 μM, respectively.

SMILES strings stand for the structures. A value given as a limit tells only on which side of the number the result lay.

For the molecule `C[C@H](c1ccc(F)cc1CCCC(=O)O)N(c1cc(F)ccc1F)S(=O)(=O)c1ccc(Cl)cc1` [BMS-299897, reference compound], the half-inhibitory concentration (IC50) in test [1] (Homo sapiens) was determined as 0.47 nM. Further, the “Notch/Aβ1-42 IC50 ratios” value in test [2] (GSIs) is reported as 723. Also, in test [2], inhibition was half-maximal at 340 nM (IC50) and the mNotch1ΔE/Aβ1-42 is listed as 723x.
Turning to `COc1cc(Nc2nc3n(n2)CCCC[C@H]3c2ccc(F)cc2)ccc1-n1cnc(Cl)c1` [BMS-869780], the IC50 in test [1] is 5.1 nM; in test [1] (Homo sapiens) it was 5.6 nM; in test [2], greater than 10000 nM. Moreover, the “ratio of Notch to Aβ1-42 IC50s” value in test [2] (based on IC50 >10 μM for Notch) was greater than 1785 fold. Moreover, the mNotch1ΔE/Aβ1-42 in test [2] was greater than 1785x.
